Results: PubChem BioAssay AID1435 (PCMD, 2008)
Active and inactive are the calls of the source. How the calls were made is not given here.

Molecular target: DNA repair protein RAD51 homolog 1 (Homo sapiens) (UniProt Q06609)
Assay: RAD51 recombination inhibitor potency, dose response, biochemical, homologous recombination, fluorescence (AID 1435)
Details: RAD51 homologous recombination biochemical assay

DNA repair protein RAD51 homolog 1 (Homo sapiens), sequence (Q06609 whole entry, looked up): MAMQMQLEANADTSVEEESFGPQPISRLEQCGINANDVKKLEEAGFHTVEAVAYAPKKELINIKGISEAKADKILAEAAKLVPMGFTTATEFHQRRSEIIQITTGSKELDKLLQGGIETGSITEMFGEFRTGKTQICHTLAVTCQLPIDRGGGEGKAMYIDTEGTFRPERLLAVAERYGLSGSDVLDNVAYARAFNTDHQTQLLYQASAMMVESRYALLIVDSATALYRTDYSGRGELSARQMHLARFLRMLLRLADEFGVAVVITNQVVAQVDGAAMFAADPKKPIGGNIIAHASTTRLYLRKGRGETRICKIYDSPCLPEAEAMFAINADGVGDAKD

IC50 | SMILES
> 85 µM (inactive) | COC(=O)/C(=C\Nc1cccc(Cl)c1C)c1ncc(C(F)(F)F)cc1Cl
> 85 µM (inactive) | CCCCCOCC1CC(C/C(C)=N/Nc2nc(-c3ccccc3)cs2)C(=O)O1 (stereo not drawn)
1.4 µM | COc1cccc2c1C(=O)c1c(O)c3c(c(O)c1C2=O)C[C@@](O)(C(=O)CO)C[C@@H]3O[C@H]1C[C@H](N)[C@@H](O)[C@H](C)O1
